PubChem BioAssay AID330 (DTP/NCI, 2004)
Several values for one entry are separate records, joined by “and”; a condition that tells them apart may be missing. Equal values may be shown once. Inconclusive results and toxic doses are left out. Rule for the calls: active = survival T/C of 150% or more; inactive = T/C below 125% in these data.

System: P388 leukemia ip, CD2F1 mice, survival T/C
Experiment: NCI In Vivo Anticancer Drug Screen. Data for tumor model P388 Leukemia (intraperitoneal) in CD2F1 (CDF1) mice
Conditions: endpoint: median survival time, higher = longer survival
How it was run: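 Mice carrying the transplanted tumor received test compound or vehicle. Survival was recorded in each group, and the value is the treated-group measurement divided by that of the vehicle-treated control group.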

[1] = dose: 50.0 mg/kg/injection, schedule: Q01DX009 (ip), vehicle: Klucel (hydroxypropylcellulose) (HPC)
[2] = dose: 100.0 mg/kg/injection, schedule: Q01DX009 (ip), vehicle: Klucel (hydroxypropylcellulose) (HPC)
[3] = dose: 200.0 mg/kg/injection, schedule: Q01DX009 (ip), vehicle: Klucel (hydroxypropylcellulose) (HPC)
[4] = dose: 50.0 mg/kg/injection, schedule: Q01DX009 (ip), vehicle: saline
[5] = dose: 100.0 mg/kg/injection, schedule: Q01DX009 (ip), vehicle: saline
[6] = dose: 200.0 mg/kg/injection, schedule: Q01DX009 (ip), vehicle: saline
[7] = dose: 60.0 mg/kg/injection, schedule: Q01DX005 (ip), vehicle: Klucel (hydroxypropylcellulose) (HPC)
[8] = dose: 120.0 mg/kg/injection, schedule: Q01DX005 (ip), vehicle: Klucel (hydroxypropylcellulose) (HPC)
[9] = dose: 240.0 mg/kg/injection, schedule: Q01DX005 (ip), vehicle: Klucel (hydroxypropylcellulose) (HPC)
[10] = dose: 100.0 mg/kg/injection, schedule: Q04DX003 (ip), vehicle: saline with Tween-80
[11] = dose: 25.0 mg/kg/injection, schedule: Q01DX001 (ip), vehicle: Klucel (hydroxypropylcellulose) (HPC)
[12] = dose: 50.0 mg/kg/injection, schedule: Q01DX001 (ip), vehicle: Klucel (hydroxypropylcellulose) (HPC)
[13] = dose: 100.0 mg/kg/injection, schedule: Q01DX001 (ip), vehicle: Klucel (hydroxypropylcellulose) (HPC)
[14] = dose: 25.0 mg/kg/injection, schedule: Q01DX009 (ip), vehicle: saline

Measured: T/C

CC(=O)OC1(C)CC2(CCCCC2)N=N1 (stereo not given)
inactive: dose: 12.5 mg/kg/injection, schedule: Q01DX009 (ip), vehicle: other 100 % of control | dose: 25.0 mg/kg/injection, schedule: Q01DX009 (ip), vehicle: other 113 % of control | dose: 50.0 mg/kg/injection, schedule: Q01DX009 (ip), vehicle: other 98 % of control | dose: 100.0 mg/kg/injection, schedule: Q01DX009 (ip), vehicle: other 111 % of control and 91 % of control | dose: 200.0 mg/kg/injection, schedule: Q01DX009 (ip), vehicle: other 107 % of control | dose: 400.0 mg/kg/injection, schedule: Q01DX009 (ip), vehicle: other 113 % of control

Fc1ccc(-c2cc(-c3cccs3)cc(-c3ccccc3)n2)cc1
inactive: [1] 121 % of control | [2] 102 % of control | [3] 100 % of control

C/C=C\n1ccccc1=O
inactive: [4] 107 % of control | [5] 113 % of control | [6] 109 % of control

CC[N+](C)(CC)c1ccccc1
inactive: dose: 25.0 mg/kg/injection, schedule: Q04DX002 (ip), vehicle: saline 103 % of control | dose: 50.0 mg/kg/injection, schedule: Q04DX002 (ip), vehicle: saline 104 % of control

C[n+]1c(C2(O)CCCCCCCCCCC2)sc2ccccc21
inactive: [7] 95 % of control | [8] 100 % of control | [9] 115 % of control

O=C(O)c1c(Cl)cccc1Cl
inactive: dose: 25.0 mg/kg/injection, schedule: Q01DX009 (ip), vehicle: saline with Tween-80 109 % of control | dose: 25.0 mg/kg/injection, schedule: Q04DX003 (ip), vehicle: saline with Tween-80 100 % of control | dose: 50.0 mg/kg/injection, schedule: Q01DX009 (ip), vehicle: saline with Tween-80 100 % of control | dose: 50.0 mg/kg/injection, schedule: Q04DX003 (ip), vehicle: saline with Tween-80 95 % of control | dose: 100.0 mg/kg/injection, schedule: Q01DX009 (ip), vehicle: saline with Tween-80 100 % of control | [10] 95 % of control

NC(=S)c1ccc(C=Nc2ccc(I)cc2)cc1
inactive: [11] 93 % of control | [12] 102 % of control | [13] 100 % of control

Cc1cc2n(n1)C(C)(C)C(=O)Nc1ccc(Cl)cc1-2
inactive: [7] 96 % of control | [8] 96 % of control | [9] 93 % of control

CCOC(=O)C1(NC(=O)Nc2ccccc2)CCCCC1
inactive: dose: 50.0 mg/kg/injection, schedule: Q01DX005 (ip), vehicle: Klucel (hydroxypropylcellulose) (HPC) 100 % of control | dose: 100.0 mg/kg/injection, schedule: Q01DX005 (ip), vehicle: Klucel (hydroxypropylcellulose) (HPC) 98 % of control | dose: 200.0 mg/kg/injection, schedule: Q01DX005 (ip), vehicle: Klucel (hydroxypropylcellulose) (HPC) 104 % of control

CCN(CC)Cc1c(C)[nH]c2ccc3c(c2c1=O)CCCC3
inactive: [7] 91 % of control | [8] 93 % of control

COc1ccc(CCNC(=O)CC2CCN(C)CC2)cc1OC
inactive: [10] 101 % of control | dose: 200.0 mg/kg/injection, schedule: Q04DX003 (ip), vehicle: saline with Tween-80 100 % of control

Cn1cnc([N+](=O)[O-])c1Sc1ccncn1
inactive: [14] 101 % of control and 105 % of control | [4] 99 % of control and 103 % of control and 114 % of control | [5] 103 % of control and 118 % of control | [6] 112 % of control and 116 % of control

COc1cc([C@@H]2c3cc4c(cc3[C@H](O)[C@@H](CO)[C@@H]2C(=O)O)OCO4)cc(OC)c1OC
inactive: dose: 50.0 mg/kg/injection, schedule: Q01DX005 (ip), vehicle: saline 90 % of control | dose: 100.0 mg/kg/injection, schedule: Q01DX005 (ip), vehicle: saline 94 % of control | dose: 200.0 mg/kg/injection, schedule: Q01DX005 (ip), vehicle: saline 93 % of control

COc1ccc(C(=O)c2cc3c(ccc4ccccc43)oc2=O)cc1
inactive: dose: 6.25 mg/kg/injection, schedule: Q01DX009 (ip), vehicle: saline 98 % of control | dose: 12.5 mg/kg/injection, schedule: Q01DX009 (ip), vehicle: saline 96 % of control | [14] 90 % of control

CCOC(=O)c1cc(Cl)cc2c(=O)c3c([nH]c12)C(=O)c1c([nH]c2c(C(=O)OCC)cc(Cl)cc2c1=O)C3=O
inactive: [1] 99 % of control | [2] 105 % of control | [3] 98 % of control

COc1cc2c(cc1OC)C1CC(=O)CCN1CC2 (stereo not given)
inactive: dose: 12.5 mg/kg/injection, schedule: Q01DX009 (ip), vehicle: Klucel (hydroxypropylcellulose) (HPC) 111 % of control | dose: 25.0 mg/kg/injection, schedule: Q01DX009 (ip), vehicle: Klucel (hydroxypropylcellulose) (HPC) 106 % of control | [1] 101 % of control | [2] 107 % of control

CCOc1ccc(N=Nc2c(C)nn(C(=S)SC)c2OCC)cc1
inactive: dose: 60.0 mg/kg/injection, schedule: Q01DX005 (ip), vehicle: Klucel + Tween-80 95 % of control | dose: 120.0 mg/kg/injection, schedule: Q01DX005 (ip), vehicle: Klucel + Tween-80 95 % of control | dose: 240.0 mg/kg/injection, schedule: Q01DX005 (ip), vehicle: Klucel + Tween-80 94 % of control

COc1cc(OC)c2cc(-n3nnc4cc([N+](=O)[O-])ccc43)c(=O)oc2c1
inactive: dose: 7.5 mg/kg/injection, schedule: Q01DX005 (ip), vehicle: saline with Tween-80 100 % of control | dose: 15.0 mg/kg/injection, schedule: Q01DX005 (ip), vehicle: saline with Tween-80 95 % of control | dose: 30.0 mg/kg/injection, schedule: Q01DX005 (ip), vehicle: saline with Tween-80 88 % of control | dose: 60.0 mg/kg/injection, schedule: Q01DX005 (ip), vehicle: saline with Tween-80 88 % of control

CC(=O)NCCNC(Cc1ccccc1)C(=O)O (stereo not given)
inactive: [11] 108 % of control | [12] 101 % of control | [13] 100 % of control and 101 % of control

FC(F)(F)/C([S-])=C(/[S-])C(F)(F)F.FC(F)(F)/C([S-])=C(/[S-])C(F)(F)F.FC(F)(F)/C([S-])=C(/[S-])C(F)(F)F.FC(F)(F)/C([S-])=C(/[S-])C(F)(F)F.[Co+3].[Co+3]
inactive: dose: 33.0 mg/kg/injection, schedule: Q04DX003 (ip), vehicle: other 107 % of control | dose: 50.0 mg/kg/injection, schedule: Q04DX003 (ip), vehicle: other 100 % of control
